Experiment [1] concerns TNF alpha production in LPS-stimulated human blood (Buffy coat). Briefly: TNF alpha production by stimulation with LPS in whole blood cultures. Format: cell-based. Put shortly:
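Human buffy coat blood, diluted 1:8 in RPMI with 2.5% heat-inactivated FBS, preincubated 1 h at 37 °C with serially 1:3-diluted compounds, then stimulated with LPS (100 ng/ml final) for 4 h. Supernatant TNFα quantified by sandwich ELISA, absorbance at 450 nm; IC50 values derived.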

For experiment [2], the target named is T1, full-length human PDE4B2 isozyme (Homo sapiens, UniProt Q07343).
T1 construct: The full-length human PDE4B2 isozyme; His6 (N); TEV cleavage site (N); made in house; host or cells: baculovirus infected insect cells (unpurified lysate)
T1 sequence (Q07343 1-564 isoform Q07343-2): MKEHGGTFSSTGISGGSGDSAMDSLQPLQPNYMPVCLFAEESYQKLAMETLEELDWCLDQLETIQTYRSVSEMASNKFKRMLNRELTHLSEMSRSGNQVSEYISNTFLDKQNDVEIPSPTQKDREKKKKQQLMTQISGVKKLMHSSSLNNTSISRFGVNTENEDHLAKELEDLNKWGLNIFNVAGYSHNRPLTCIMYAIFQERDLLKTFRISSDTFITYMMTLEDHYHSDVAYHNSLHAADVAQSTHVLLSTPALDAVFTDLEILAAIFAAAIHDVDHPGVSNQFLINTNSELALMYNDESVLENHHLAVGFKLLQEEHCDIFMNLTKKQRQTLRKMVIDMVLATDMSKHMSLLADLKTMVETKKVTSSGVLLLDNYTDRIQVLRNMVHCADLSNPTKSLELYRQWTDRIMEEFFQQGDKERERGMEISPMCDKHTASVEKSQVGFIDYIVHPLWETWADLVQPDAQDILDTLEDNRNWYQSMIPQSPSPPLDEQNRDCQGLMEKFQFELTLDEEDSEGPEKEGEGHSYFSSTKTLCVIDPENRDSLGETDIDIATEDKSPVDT
Nature of the experiment: PDE4 IC50 determination by Scintillation Proximity Assay, PDE4B2. Format: biochemical. Put shortly:
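Unpurified His6-TEV-tagged full-length human PDE4B2 from baculovirus-infected insect cell lysate (2.5 μl of 50% glycerol stock/ml) hydrolysed [3H]cAMP in 50 mM Tris pH 7.5, 8.3 mM MgCl, 1.7 mM EGTA, 0.01% BSA for 30 min at 30°. Stopped with SPA beads in 18 mM ZnSO4; [3H]AMP scintillation counted, IC50 by non-linear regression.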
For orientation: SPA uses beads or plates that emit light when radiolabelled molecules are held near them.

Where [3] appears, read: Homo sapiens, Table 1B, Formula I compounds, read-out: IC50 h TNFα.
Where [4] appears, read: Table 1B, Formula I compounds, read-out: IC50 PDE4B2.
The mark [5] stands for this setting: human whole blood, LPS 100 ng/ml, read-out: IC 50 vs. indicated assay h TNFα.
The mark [6] stands for this setting: second part of Table 2B (2-23 to 2-103), column 4, column is PDE4B2 in first part, read-out: IC 50 vs. indicated assay h TNFα.

IC50 data for eleven compounds are collected here from patent publication US7585859B2, “PDE4B inhibitors and uses therefor” (Plexxikon, Inc., priority 2004, dated 2009).

Where two headings read alike, the source gives them in different places. Bounds are passed on as bounds.

As to `CCOC(=O)c1c(NC2CCCC2)sc(C(=O)c2ccc(OC)cc2)c1N` [Compound 1-191, 4-Amino-2-cyclopentylamino-5-(4-methoxy-benzoyl)-thiophene-3-carboxylic acid ethyl ester], the IC50 is above 10 µM in experiment [1] (setting [3]) and below 10 µM in experiment [2] (setting [4]).
The like results for `CC(C)CNc1sc(C(=O)c2cc(-c3ccccc3)no2)c(N)c1C(N)=O` [Compound 1-236, 4-Amino-2-isobutylamino-5-(3-phenyl-isoxazole-5-carbonyl)-thiophene-3-carboxylic acid amide] were, in that order, above 10 µM and below 10 µM.
As to `COc1ccc(C(=O)c2sc(Nc3ccccc3)c(C#N)c2N)cc1` [Compound 1-31], the IC50 in experiment [1] (setting [3]) and in experiment [2] (setting [4]) was below 10 µM throughout.
As to `Nc1nc(Nc2ccccc2F)sc1C(=O)c1cc(-c2ccccc2)no1` [Compound 2-6, [4-Amino-2-(2-fluoro-phenylamino)-thiazol-5-yl]-(3-phenyl-isoxazol-5-yl)-methanone], the IC50 in experiment [1] (setting [5]) is above 10 µM; in experiment [2] (first part of Table 2B (2-1 to 2-22), read-out: IC 50 vs. indicated assay PDE4B2), below 10 µM.
Take `N#Cc1c(Nc2ccccc2)sc(C(=O)c2cc(-c3ccccc3)no2)c1N` [Compound 1-192, 4-Amino-2-phenylamino-5-(3-phenyl-isoxazole-5-carbonyl)-thiophene-3-carbonitrile]: the IC50 in experiment [1] (setting [3]) and in experiment [2] (setting [4]) was below 10 µM in each case.
For `Nc1nc(NC2CCCC2)sc1C(=O)c1cccc(Cl)c1` [Compound 2-80, (4-Amino-2-cyclopentylamino-thiazol-5-yl)-(3-chloro-phenyl)-methanone], the IC50 in experiment [1] (setting [5]) and in experiment [2] (setting [6]) was below 10 µM each time.
For the compound `Nc1nc(Nc2ccc(Cl)cc2)sc1C(=O)c1cccc(C(F)(F)F)c1` [Compound 2-23, [4-Amino-2-(4-chloro-phenylamino)-thiazol-5-yl]-(3-trifluoromethyl-phenyl)-methanone], the IC50 in experiment [1] (setting [5]) was above 10 µM; in experiment [2] (setting [6]) it was below 10 µM.
For the compound `NC(=O)c1c(NC2CCCC2)sc(C(=O)c2cc(-c3ccccc3)no2)c1N` [Compound 1-251, 4-Amino-2-cyclopentylamino-5-(3-phenyl-isoxazole-5-carbonyl)-thiophene-3-carboxylic acid amide], the IC50 in experiment [1] (setting [3]) is above 10 µM; in experiment [2] (setting [4]) it was below 10 µM.
The like results for `CC(C)Nc1sc(C(=O)c2cc(-c3ccccc3)no2)c(N)c1C#N` [Compound 1-205, 4-Amino-2-isopropylamino-5-(3-phenyl-isoxazole-5-carbonyl)-thiophene-3-carbonitrile] were, in that order, above 10 µM and above 10 µM.
The like results for `N#Cc1c(Nc2ccccc2)sc(C(=O)C2CC2)c1N` [Compound 1-28, 4-Amino-5-cyclopropanecarbonyl-2-phenylamino-thiophene-3-carbonitrile] were, in that order, below 10 µM and below 10 µM.
The like results for `CC(C)Nc1sc(C(=O)c2cc(-c3ccc(Cl)cc3)no2)c(N)c1C#N` [Compound 1-212, 4-Amino-5-[3-(4-chloro-phenyl)-isoxazole-5-carbonyl]-2-isopropylamino-thiophene-3-carbonitrile] were, in that order, above 10 µM and below 10 µM.
